Data on one compound can be found in patent US11033537B2, “LPT-723 and immune checkpoint inhibitor combinations and methods of treatment” (BIOMED VALLEY DISCOVERIES, INC., priority 2015, dated 2021).

Data set [1] can be described thus: Rat 28-day GLP toxicity study. Format: in vivo, CD [Crl:CD (SD)] rats. The method, then: Vehicle and Test Article Preparation: The vehicle, 2% TPGS/1.5% HPMCAS-HF/1.5% PVP-VA with 50 mM pH 5.0 sodium citrate in deionized water, was prepared for use weekly and was stored at room temperature when not in use. A correction factor of 4 was used to adjust for purity when preparing the LPT-723 formulations. Appropriate amounts of the LPT-723 were mixed with the vehicle to achieve nominal concentrations of 0.3, 0.6, and 1.2 mg/mL. Formulations of the LPT-723 were prepared daily, stored at room temperature, protected from light, and were dosed within 4 hours of preparation.
Animal Acquisition and Acclimation: A total of 98 male and 98 female CD® [Crl:CD® (SD)] rats (approximately 6 to 7 weeks of age at receipt) were received from Charles River Laboratories, Portage, Mich. During the 10-day acclimation period, the animals were observed daily with respect to general health and any signs of disease. All animals were given a detailed clinical examination prior to selection for study. The animals were administered a sham dose of tap water on two occasions in the same manner and dose volume intended for use on study.
Randomization, Assignment to Study, and Maintenance: Using a standard, by weight, measured value randomization procedure, 85 male and 85 female animals (weighing 228 to 283 g and 170 to 218 g, respectively, at randomization) were assigned to the control and treatment groups identified in the following table.
Vehicle and LPT-723 Administration: Vehicle and LPT-723 were administered once daily for 22 days for main study animals at 12 mg/kg/day, for 23 days for TK animals at 12 mg/kg/day, and for 28 days for all animals at 0, 3, and 6 mg/kg/day. The animals were dosed via oral gavage at a dose volume of 10 mL/kg. The control group received the vehicle in the same manner as the treated groups. The vehicle and test article were dosed from stirred formulations at approximately the same time each day (±2 hours) based on the first animal dosed each day. Individual doses were based on the most recent body weights.

In the next data set the test system is Pan02 cells. The data set can be described thus: In vitro cell viability assay (CellTiter-Glo), Pan02. Format: cell-based, murine. The following applies: Mus musculus. The source says: No significant changes in body weights were noted.
A short description of data set [2]: Monkey cardiovascular (CV) study. Format: in vivo. The following applies: 25 and 40 mg/kg oral gavage, male monkeys, cross-over.
Data set [3] relates to A20 murine syngeneic B cell lymphoma. In words: A20 lymphoma syngeneic model. It is filed as in vivo, BALB/c mice. The following applies: Day 15; LPT-723 30 mpk p.o. bid; anti-PD-1 10 mpk i.p. twice a week. As for the experimental part: BALB/c mice bearing A20 murine syngeneic B cell lymphoma were treated with control (vehicle), anti-PD-1 (clone RMP1-14), LPT-723 and anti-PD-1/LPT-723 combination. Treatment was initiated when tumor volume reached approximately 80-120 mm^3. Anti-PD-1 was dosed i.p. twice a week for three weeks at 10 mpk. LPT-723 was dosed p.o. twice a day at 30 mpk. […] No significant changes in body weights were noted.

As for `Cc1cc(-c2cncc(C(O)C(F)(F)F)c2)nc2c1C(=O)N(c1cnn(CC(F)F)c1)C2(C)C` (centres unmarked) [LPT-723], in data set [1], the therapeutic index was below 4 and the tolerability result is on record as “poorly tolerated”. In addition, the NOAEL in data set [1] (both sexes, CD [Crl:CD (SD)], in vivo, oral gavage once daily, 3, 6, 12 mg/kg/day, read-out: no observed adverse effect level (NOAEL)) was below 3 mg/kg. The circulating neutrophils result in data set [1] (clinical chemistry) is given as “large increase in circulating neutrophils”. Also, the tissue findings result in data set [1] (particularly gastrointestinal tract) is listed as “inflammatory state in multiple organs”. Further, the IC50 in the data set with Pan02 cells amounted to 26.6 µM. The toxicological observations entry in data set [2] is “no significant toxicological observations”. Besides, in data set [3], the “decrease in median tumor volume” value amounted to 43%.
